Assay results reported in PubChem BioAssay (NCI).
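Five concentrations, 48 hours, 96-well plates. The concentration for full growth arrest is given as TGI.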

How the values were obtained:
Test in all cases: NCI-60 cell line screen, 48 h
786-0 renal = tested on: 786-0 renal
A498 renal = tested on: A498 renal
A549 NSCLC = tested on: A549 NSCLC
ACHN renal = tested on: ACHN renal
BT-549 breast = tested on: BT-549 breast
CAKI-1 renal = tested on: CAKI-1 renal
CCRF-CEM leukemia = tested on: CCRF-CEM leukemia
COLO 205 colon = tested on: COLO 205 colon
DU-145 prostate = tested on: DU-145 prostate
EKVX NSCLC = tested on: EKVX NSCLC
HCC-2998 colon = tested on: HCC-2998 colon
HCT-116 colon = tested on: HCT-116 colon
HCT-15 colon = tested on: HCT-15 colon
HL-60(TB) leukemia = tested on: HL-60(TB) leukemia
HS 578T breast = tested on: HS 578T breast
HT29 colon = tested on: HT29 colon
IGROV1 ovarian = tested on: IGROV1 ovarian
K-562 leukemia = tested on: K-562 leukemia
KM12 colon = tested on: KM12 colon
LOX IMVI melanoma = tested on: LOX IMVI melanoma
M14 melanoma = tested on: M14 melanoma
MALME-3M melanoma = tested on: MALME-3M melanoma
MCF7 breast = tested on: MCF7 breast
MDA-MB-231 breast = tested on: MDA-MB-231 breast
MDA-MB-435 = tested on: MDA-MB-435
MDA-N = tested on: MDA-N
MOLT-4 leukemia = tested on: MOLT-4 leukemia
NCI-H226 lung = tested on: NCI-H226 lung
NCI-H23 lung = tested on: NCI-H23 lung
NCI-H460 lung = tested on: NCI-H460 lung
NCI-H522 lung = tested on: NCI-H522 lung
NCI/ADR-RES ovarian = tested on: NCI/ADR-RES ovarian
OVCAR-4 ovarian = tested on: OVCAR-4 ovarian
OVCAR-5 ovarian = tested on: OVCAR-5 ovarian
OVCAR-8 ovarian = tested on: OVCAR-8 ovarian
RPMI-8226 leukemia = tested on: RPMI-8226 leukemia
RXF 393 renal = tested on: RXF 393 renal
SF-268 CNS = tested on: SF-268 CNS
SF-295 CNS = tested on: SF-295 CNS
SF-539 CNS = tested on: SF-539 CNS
SK-MEL-28 melanoma = tested on: SK-MEL-28 melanoma
SK-MEL-5 melanoma = tested on: SK-MEL-5 melanoma
SK-OV-3 ovarian = tested on: SK-OV-3 ovarian
SN12C renal = tested on: SN12C renal
SNB-19 CNS = tested on: SNB-19 CNS
SNB-75 CNS = tested on: SNB-75 CNS
SW-620 colon = tested on: SW-620 colon
T-47D breast = tested on: T-47D breast
TK-10 renal = tested on: TK-10 renal
U251 CNS = tested on: U251 CNS
UACC-257 melanoma = tested on: UACC-257 melanoma
UACC-62 melanoma = tested on: UACC-62 melanoma
UO-31 renal = tested on: UO-31 renal
HOP-62 NSCLC = tested on: HOP-62 NSCLC
OVCAR-3 ovarian = tested on: OVCAR-3 ovarian
PC-3 prostate = tested on: PC-3 prostate
SK-MEL-2 melanoma = tested on: SK-MEL-2 melanoma
HOP-92 NSCLC = tested on: HOP-92 NSCLC
SR leukemia = tested on: SR leukemia

With NCCCN(CCCCN(CCCN)Cc1ccccc1)Cc1ccccc1 the TGI (786-0 renal) was 77.5 µM, the TGI (A498 renal) was > 100 µM and the TGI (A549 NSCLC) was > 100 µM. The TGI (ACHN renal) was > 100 µM, the TGI (BT-549 breast) was > 100 µM and the TGI (CAKI-1 renal) was 31.9 µM. For the same molecule, the TGI (CCRF-CEM leukemia) was > 100 µM, the TGI (COLO 205 colon) was > 100 µM and the TGI (DU-145 prostate) was > 100 µM. The TGI (EKVX NSCLC) was 96.5 µM, the TGI (HCC-2998 colon) was 22.7 µM and the TGI (HCT-116 colon) was > 100 µM. The TGI (HCT-15 colon) was > 100 µM, the TGI (HL-60(TB) leukemia) was > 100 µM and the TGI (HS 578T breast) was 35.7 µM. The TGI (HT29 colon) was 44.1 µM, the TGI (IGROV1 ovarian) was 37.1 µM and the TGI (K-562 leukemia) was > 100 µM. For the same molecule, the TGI (KM12 colon) was > 100 µM, the TGI (LOX IMVI melanoma) was 40.5 µM and the TGI (M14 melanoma) was > 100 µM. The TGI (MALME-3M melanoma) was > 100 µM, the TGI (MCF7 breast) was 60.5 µM and the TGI (MDA-MB-231 breast) was > 100 µM. For the same molecule, the TGI (MDA-MB-435) was > 100 µM, the TGI (MDA-N) was 33.1 µM and the TGI (MOLT-4 leukemia) was 46 µM. The TGI (NCI-H226 lung) was > 100 µM, the TGI (NCI-H23 lung) was > 100 µM and the TGI (NCI-H460 lung) was 32.2 µM. The TGI (NCI-H522 lung) was 23.9 µM, the TGI (NCI/ADR-RES ovarian) was > 100 µM and the TGI (OVCAR-4 ovarian) was > 100 µM. For the same molecule, the TGI (OVCAR-5 ovarian) was 37.8 µM, the TGI (OVCAR-8 ovarian) was > 100 µM and the TGI (RPMI-8226 leukemia) was > 100 µM. The TGI (RXF 393 renal) was > 100 µM, the TGI (SF-268 CNS) was 37.1 µM and the TGI (SF-295 CNS) was > 100 µM. The TGI (SF-539 CNS) was > 100 µM, the TGI (SK-MEL-28 melanoma) was > 100 µM and the TGI (SK-MEL-5 melanoma) was > 100 µM. For the same molecule, the TGI (SK-OV-3 ovarian) was > 100 µM, the TGI (SN12C renal) was 42.5 µM and the TGI (SNB-19 CNS) was 22.5 µM. For the same molecule, the TGI (SNB-75 CNS) was 37.6 µM, the TGI (SW-620 colon) was > 100 µM and the TGI (T-47D breast) was > 100 µM. The TGI (TK-10 renal) was > 100 µM, the TGI (U251 CNS) was > 100 µM and the TGI (UACC-257 melanoma) was > 100 µM. The TGI (UACC-62 melanoma) was > 100 µM and the TGI (UO-31 renal) was > 100 µM.
Nc1ccc(Oc2ccc(C34CC5CC(C3)CC(c3ccc(Oc6ccc(N)cc6C(F)(F)F)cc3)(C5)C4)cc2)c(C(F)(F)F)c1 was tested, and the TGI (786-0 renal) was > 100 µM, the TGI (A498 renal) was 35.2 µM and the TGI (A549 NSCLC) was 49 µM. The TGI (ACHN renal) was > 100 µM, the TGI (BT-549 breast) was 52.1 µM and the TGI (CAKI-1 renal) was > 100 µM. The TGI (CCRF-CEM leukemia) was > 100 µM, the TGI (COLO 205 colon) was 37.1 µM and the TGI (DU-145 prostate) was > 100 µM. The TGI (EKVX NSCLC) was 30.9 µM, the TGI (HCT-116 colon) was > 100 µM and the TGI (HCT-15 colon) was > 100 µM. For the same molecule, the TGI (HL-60(TB) leukemia) was > 100 µM, the TGI (HOP-62 NSCLC) was 44.9 µM and the TGI (HS 578T breast) was 42.6 µM. For the same molecule, the TGI (HT29 colon) was 35.6 µM, the TGI (IGROV1 ovarian) was 37.9 µM and the TGI (K-562 leukemia) was > 100 µM. The TGI (KM12 colon) was 67.6 µM, the TGI (LOX IMVI melanoma) was 31.8 µM and the TGI (M14 melanoma) was 33.4 µM. The TGI (MALME-3M melanoma) was 58.5 µM, the TGI (MCF7 breast) was 33.8 µM and the TGI (MDA-MB-231 breast) was 31.5 µM. For the same molecule, the TGI (MDA-MB-435) was 84.2 µM, the TGI (MDA-N) was > 100 µM and the TGI (MOLT-4 leukemia) was > 100 µM. For the same molecule, the TGI (NCI-H226 lung) was 35.7 µM, the TGI (NCI-H23 lung) was 45.6 µM and the TGI (NCI-H460 lung) was 37.9 µM. It also gave a TGI (NCI-H522 lung) of 30.3 µM, a TGI (NCI/ADR-RES ovarian) of 54.9 µM and a TGI (OVCAR-3 ovarian) of 37.7 µM. For the same molecule, the TGI (OVCAR-4 ovarian) was > 100 µM, the TGI (OVCAR-5 ovarian) was 70.3 µM and the TGI (OVCAR-8 ovarian) was 29.5 µM. The TGI (PC-3 prostate) was 29.2 µM, the TGI (RXF 393 renal) was 25.1 µM and the TGI (SF-268 CNS) was 43.9 µM. The TGI (SF-295 CNS) was 79.9 µM, the TGI (SK-MEL-2 melanoma) was 28.8 µM and the TGI (SK-MEL-28 melanoma) was > 100 µM. For the same molecule, the TGI (SK-MEL-5 melanoma) was 39.9 µM, the TGI (SK-OV-3 ovarian) was 35.4 µM and the TGI (SN12C renal) was > 100 µM. For the same molecule, the TGI (SNB-19 CNS) was 48.9 µM, the TGI (SW-620 colon) was > 100 µM and the TGI (T-47D breast) was 64.5 µM. It also gave a TGI (TK-10 renal) of 31.1 µM, a TGI (U251 CNS) of 27.6 µM and a TGI (UACC-257 melanoma) of 40.3 µM. The TGI (UACC-62 melanoma) was 62.3 µM and the TGI (UO-31 renal) was > 100 µM.
For CC(C)CNC1=NCC(C)S1 (stereo not given), the TGI (A498 renal) was > 100 µM, the TGI (A549 NSCLC) was > 100 µM and the TGI (ACHN renal) was > 100 µM. For the same molecule, the TGI (BT-549 breast) was > 100 µM, the TGI (CAKI-1 renal) was > 100 µM and the TGI (CCRF-CEM leukemia) was > 100 µM. For the same molecule, the TGI (COLO 205 colon) was > 100 µM, the TGI (DU-145 prostate) was > 100 µM and the TGI (EKVX NSCLC) was > 100 µM. The TGI (HCC-2998 colon) was > 100 µM, the TGI (HCT-116 colon) was > 100 µM and the TGI (HCT-15 colon) was > 100 µM. The TGI (HL-60(TB) leukemia) was > 100 µM, the TGI (HOP-62 NSCLC) was > 100 µM and the TGI (HOP-92 NSCLC) was > 100 µM. For the same molecule, the TGI (HS 578T breast) was > 100 µM, the TGI (HT29 colon) was > 100 µM and the TGI (IGROV1 ovarian) was > 100 µM. For the same molecule, the TGI (K-562 leukemia) was > 100 µM, the TGI (KM12 colon) was > 100 µM and the TGI (LOX IMVI melanoma) was > 100 µM. For the same molecule, the TGI (M14 melanoma) was > 100 µM, the TGI (MALME-3M melanoma) was > 100 µM and the TGI (MCF7 breast) was > 100 µM. For the same molecule, the TGI (MDA-MB-231 breast) was > 100 µM, the TGI (MDA-MB-435) was > 100 µM and the TGI (MDA-N) was > 100 µM. For the same molecule, the TGI (MOLT-4 leukemia) was > 100 µM, the TGI (NCI-H226 lung) was > 100 µM and the TGI (NCI-H23 lung) was > 100 µM. The TGI (NCI-H460 lung) was > 100 µM, the TGI (NCI-H522 lung) was > 100 µM and the TGI (OVCAR-3 ovarian) was > 100 µM. The TGI (OVCAR-5 ovarian) was > 100 µM, the TGI (PC-3 prostate) was > 100 µM and the TGI (RPMI-8226 leukemia) was > 100 µM. For the same molecule, the TGI (RXF 393 renal) was > 100 µM, the TGI (SF-268 CNS) was > 100 µM and the TGI (SF-295 CNS) was > 100 µM. For the same molecule, the TGI (SF-539 CNS) was > 100 µM, the TGI (SK-MEL-2 melanoma) was > 100 µM and the TGI (SK-MEL-28 melanoma) was > 100 µM. For the same molecule, the TGI (SK-MEL-5 melanoma) was > 100 µM, the TGI (SK-OV-3 ovarian) was > 100 µM and the TGI (SNB-19 CNS) was > 100 µM. The TGI (SNB-75 CNS) was > 100 µM, the TGI (SR leukemia) was > 100 µM and the TGI (SW-620 colon) was > 100 µM. For the same molecule, the TGI (T-47D breast) was > 100 µM, the TGI (TK-10 renal) was > 100 µM and the TGI (U251 CNS) was > 100 µM. The TGI (UACC-257 melanoma) was > 100 µM, the TGI (UACC-62 melanoma) was > 100 µM and the TGI (UO-31 renal) was > 100 µM.
